According to ChEMBL document CHEMBL5046278, “Synthesis and Evaluation of Novel Tetrahydronaphthyridine CXCR4 Antagonists with Improved Drug-like Profiles” (J Med Chem, 2022):

Tests used:
[1] = Metabolic stability in human liver microsomes assessed compound remaining measured after 10 mins in presence of NADPH; format: ADME, Microsome; conditions: read-out: Stability
[2] = Cmax in mouse at 30 mg/kg, po measured after 8 hrs by LC-MS/MS analysis; format: ADME, organism-based; set-up: route oral, dose 30 mg/kg, time 8 hrs; conditions: in vivo
[3] = Antagonist activity at mAChR (unknown origin) expressed in CCRF-CEM cells assessed as inhibition of calcium release by calcium flux assay; format: cell-based; conditions: Homo sapiens
[4] = Permeability of compound at pH 7.4 incubated for 4 hrs by PAMPA assay; format: ADME; conditions: read-out: permeability
Cytochrome P450 2D6 = Cytochrome P450 2D6 (Homo sapiens, UniProt P10635); assay: Inhibition of recombinant human CYP2D6 using AMMC as substrate preincubated for 30 mins followed by substrate addition measured after 45 mins by fluorescence based assay; format: ADME
[5] = Metabolic stability in rat liver microsomes assessed compound remaining measured after 10 mins in presence of NADPH; format: ADME, Microsome; conditions: read-out: Stability
[6] = Cytotoxicity against human TZM-bl cells assessed as reduction in cell viability incubated for 4 hrs by […] assay; format: toxicity, cell-based; conditions: read-out: TC50
[7] = system: Human immunodeficiency virus 1; assay: Antiviral activity against HIV-1 NL4-3(X4) pseudovirus infected in human TZM-bl cells assessed as reduction in viral infectivity measured after 48 hrs of postinfection by luminescence assay; format: functional, organism-based; conditions: Human immunodeficiency virus 1, NL4-3(X4)
[8] = target: T1, Alpha-2C adrenergic receptor (Homo sapiens, UniProt P18825); assay: Inhibition of alpha 2C adrenergic receptor (unknown origin)
T1 sequence (P18825 whole entry): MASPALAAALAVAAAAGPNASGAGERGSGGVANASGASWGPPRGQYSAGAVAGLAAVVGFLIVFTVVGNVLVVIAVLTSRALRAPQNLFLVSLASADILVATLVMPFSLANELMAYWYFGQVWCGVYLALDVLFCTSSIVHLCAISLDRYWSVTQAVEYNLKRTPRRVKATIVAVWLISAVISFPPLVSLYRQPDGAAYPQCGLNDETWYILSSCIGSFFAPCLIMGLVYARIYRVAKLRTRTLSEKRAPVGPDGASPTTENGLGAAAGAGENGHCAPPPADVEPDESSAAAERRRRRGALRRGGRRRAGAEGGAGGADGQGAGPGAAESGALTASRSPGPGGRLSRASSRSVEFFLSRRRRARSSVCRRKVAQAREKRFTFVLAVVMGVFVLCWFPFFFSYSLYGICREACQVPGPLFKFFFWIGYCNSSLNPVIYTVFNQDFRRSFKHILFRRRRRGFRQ

[9] = target: Kappa-type opioid receptor (Homo sapiens, UniProt P41145); assay: Inhibition of kappa opioid receptor (unknown origin)
[10] = target: Voltage-gated inwardly rectifying potassium channel KCNH2 (Homo sapiens, UniProt Q12809); assay: Inhibition of human ERG by [3H]]Astemizole binding assay; format: toxicity
[11] = Cmax in mouse at 3 mg/kg, iv measured after 8 hrs by LC-MS/MS analysis; format: ADME, organism-based; set-up: route intravenous, time 8 hrs, dose 3 mg/kg; conditions: in vivo
[12] = Cmax in mouse at 3 mg/kg, po measured after 8 hrs by LC-MS/MS analysis; format: ADME, organism-based; set-up: route oral, time 8 hrs, dose 3 mg/kg; conditions: in vivo
[13] = Drug concentration in mouse plasma at 10 mg/kg, po measured at 12 hrs by LC-MS/MS analysis; format: ADME, organism-based
[14] = AUC(0 to 8 h) in mouse plasma at 10 mg/kg, po measured at 24 hrs by LC-MS/MS analysis; format: ADME, organism-based; set-up: route oral, dose 10 mg/kg, time 24 hrs; conditions: in vivo
[15] = AUC(0 to 8 h) in mouse plasma at 30 mg/kg, po measured at 24 hrs by LC-MS/MS analysis; format: ADME, organism-based; set-up: route oral, time 24 hrs, dose 30 mg/kg; conditions: in vivo
[16] = Oral bioavailability in mouse at 3 mg/kg measured at 24 hrs by LC-MS/MS analysis; format: ADME, organism-based; conditions: in vivo
[17] = Oral bioavailability in mouse at 30 mg/kg measured at 24 hrs by LC-MS/MS analysis; format: ADME, organism-based; conditions: in vivo
[18] = Oral bioavailability in mouse at 10 mg/kg measured at 24 hrs by LC-MS/MS analysis; format: ADME, organism-based; conditions: in vivo
[19] = Clearence in mouse at 3 mg/kg, iv measured at 24 hrs by LC-MS analysis; format: ADME, organism-based; conditions: in vivo
[20] = Volume of distribution in mouse at 3 mg/kg, measured at 24 hrs by LC-MS analysis; format: ADME, organism-based; conditions: in vivo
Cytochrome P450 1A2 = Cytochrome P450 1A2 (Homo sapiens, UniProt P05177); assay: Inhibition of CYP1A2(unknown origin); format: ADME
Cytochrome P450 2C19 = Cytochrome P450 2C19 (Homo sapiens, UniProt P33261); assay: Inhibition of CYP2C19 (unknown origin); format: ADME
Cytochrome P450 2C9 = Cytochrome P450 2C9 (Homo sapiens, UniProt P11712); assay: Inhibition of CYP2C9 (unknown origin); format: ADME
[21] = target: C-X-C chemokine receptor type 1 (Homo sapiens) (UniProt P25024); assay: Inhibition of human CXCR1 at 10 uM relative to control
[22] = target: C-X-C chemokine receptor type 3 (Homo sapiens) (UniProt P49682); assay: Inhibition of human CXCR3 at 10 uM relative to control
[23] = target: C-C chemokine receptor type 4 (Homo sapiens) (UniProt P51679); assay: Inhibition of human CCR4 at 10 uM relative to control
[24] = target: C-C chemokine receptor type 5 (Homo sapiens) (UniProt P51681); assay: Inhibition of human CCR5 at 10 uM relative to control
[25] = target: C-C chemokine receptor type 6 (Homo sapiens) (UniProt P51684); assay: Inhibition of human CCR6 at 10 uM relative to control
[26] = target: C-C chemokine receptor type 7 (Homo sapiens) (UniProt P32248); assay: Inhibition of human CCR7 at 10 uM relative to control
Homo sapiens [27] = species on record: Homo sapiens; assay: Selectivity index, ratio of IC50 for Inhibition of human ERG to IC50 for antagonist activity at human CXCR4 receptor expressed in CCRF-CEM cells; format: cell-based
Homo sapiens [28] = species on record: Homo sapiens; assay: Selectivity index, ratio of IC50 for inhibition of alpha 2A adrenergic receptor (unknown origin) to IC50 for antagonist activity at human CXCR4 receptor expressed in CCRF-CEM cells; format: cell-based
Homo sapiens [29] = species on record: Homo sapiens; assay: Selectivity index, ratio of IC50 for inhibition of alpha 2C adrenergic receptor (unknown origin) to IC50 for antagonist activity at human CXCR4 receptor expressed in CCRF-CEM cells; format: cell-based
Homo sapiens [30] = species on record: Homo sapiens; assay: Selectivity index, ratio of IC50 for inhibition of mu opioid receptor (unknown origin) to IC50 for antagonist activity at human CXCR4 receptor expressed in CCRF-CEM cells; format: cell-based
Homo sapiens [31] = species on record: Homo sapiens; assay: Selectivity index, ratio of IC50 for inhibition of kappa opioid receptor (unknown origin) to IC50 for antagonist activity at human CXCR4 receptor expressed in CCRF-CEM cells; format: cell-based
Homo sapiens [32] = species on record: Homo sapiens; assay: Selectivity index, ratio of IC50 for inhibition of recombinant human CYP1A2 to IC50 for antagonist activity at human CXCR4 receptor expressed in CCRF-CEM cells; format: cell-based
Homo sapiens [33] = species on record: Homo sapiens; assay: Selectivity index, ratio of IC50 for inhibition of recombinant human CYP2C9 to IC50 for antagonist activity at human CXCR4 receptor expressed in CCRF-CEM cells; format: cell-based

Cytochrome P450 2C19, sequence (P33261 whole entry): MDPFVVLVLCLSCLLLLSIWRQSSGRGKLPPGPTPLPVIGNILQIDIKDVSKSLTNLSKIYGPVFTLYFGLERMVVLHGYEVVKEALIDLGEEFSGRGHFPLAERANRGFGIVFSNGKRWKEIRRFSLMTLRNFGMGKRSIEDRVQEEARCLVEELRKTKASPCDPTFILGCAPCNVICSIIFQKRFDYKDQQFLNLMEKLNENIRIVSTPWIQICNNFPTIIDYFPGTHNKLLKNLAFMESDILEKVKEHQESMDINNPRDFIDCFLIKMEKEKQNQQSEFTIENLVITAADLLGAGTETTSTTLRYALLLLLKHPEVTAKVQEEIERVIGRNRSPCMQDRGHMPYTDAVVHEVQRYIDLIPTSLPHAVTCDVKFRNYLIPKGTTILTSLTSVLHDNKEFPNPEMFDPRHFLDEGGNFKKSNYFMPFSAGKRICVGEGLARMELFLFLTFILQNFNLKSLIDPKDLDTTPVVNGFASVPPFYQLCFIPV
Voltage-gated inwardly rectifying potassium channel KCNH2, sequence (Q12809 whole entry): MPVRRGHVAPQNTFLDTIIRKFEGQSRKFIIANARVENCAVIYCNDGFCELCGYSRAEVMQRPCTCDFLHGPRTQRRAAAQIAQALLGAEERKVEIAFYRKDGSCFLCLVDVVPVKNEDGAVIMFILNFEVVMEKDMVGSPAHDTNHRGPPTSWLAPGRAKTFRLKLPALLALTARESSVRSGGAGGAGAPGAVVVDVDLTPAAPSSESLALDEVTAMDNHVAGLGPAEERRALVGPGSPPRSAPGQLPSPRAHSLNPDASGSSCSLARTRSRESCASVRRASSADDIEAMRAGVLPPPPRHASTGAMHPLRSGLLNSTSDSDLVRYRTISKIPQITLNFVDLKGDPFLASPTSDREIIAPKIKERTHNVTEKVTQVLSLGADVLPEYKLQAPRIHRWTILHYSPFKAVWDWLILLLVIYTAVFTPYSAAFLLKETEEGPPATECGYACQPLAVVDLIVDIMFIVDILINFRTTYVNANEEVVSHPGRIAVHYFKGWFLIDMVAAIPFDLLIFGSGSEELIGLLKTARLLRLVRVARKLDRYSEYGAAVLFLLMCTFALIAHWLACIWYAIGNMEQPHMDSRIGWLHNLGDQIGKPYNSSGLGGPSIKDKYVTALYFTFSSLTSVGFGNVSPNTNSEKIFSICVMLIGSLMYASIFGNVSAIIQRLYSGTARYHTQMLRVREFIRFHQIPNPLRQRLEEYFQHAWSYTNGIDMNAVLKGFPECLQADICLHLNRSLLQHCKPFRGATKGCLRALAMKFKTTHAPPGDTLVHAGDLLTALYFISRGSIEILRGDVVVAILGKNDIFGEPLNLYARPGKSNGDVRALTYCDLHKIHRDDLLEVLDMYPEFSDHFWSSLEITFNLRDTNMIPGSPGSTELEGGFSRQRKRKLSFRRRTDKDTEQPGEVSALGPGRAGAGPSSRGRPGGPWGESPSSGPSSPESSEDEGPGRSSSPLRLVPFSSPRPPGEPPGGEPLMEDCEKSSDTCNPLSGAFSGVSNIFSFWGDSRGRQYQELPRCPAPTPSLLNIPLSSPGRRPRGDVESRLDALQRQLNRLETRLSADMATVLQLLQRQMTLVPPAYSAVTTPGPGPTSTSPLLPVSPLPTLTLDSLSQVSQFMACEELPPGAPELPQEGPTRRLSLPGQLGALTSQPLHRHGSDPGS
C-C chemokine receptor type 5 (Homo sapiens), sequence (P51681 whole entry, looked up): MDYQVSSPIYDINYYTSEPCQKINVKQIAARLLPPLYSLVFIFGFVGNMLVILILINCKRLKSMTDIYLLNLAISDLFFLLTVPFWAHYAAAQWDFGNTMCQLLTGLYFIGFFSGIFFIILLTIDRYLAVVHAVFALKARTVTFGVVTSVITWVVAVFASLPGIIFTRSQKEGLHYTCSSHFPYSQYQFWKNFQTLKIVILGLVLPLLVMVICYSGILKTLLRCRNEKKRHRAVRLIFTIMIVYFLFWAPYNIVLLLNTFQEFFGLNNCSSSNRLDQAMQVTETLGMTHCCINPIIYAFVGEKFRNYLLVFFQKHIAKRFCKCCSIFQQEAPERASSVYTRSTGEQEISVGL
C-C chemokine receptor type 6 (Homo sapiens), sequence (P51684 whole entry): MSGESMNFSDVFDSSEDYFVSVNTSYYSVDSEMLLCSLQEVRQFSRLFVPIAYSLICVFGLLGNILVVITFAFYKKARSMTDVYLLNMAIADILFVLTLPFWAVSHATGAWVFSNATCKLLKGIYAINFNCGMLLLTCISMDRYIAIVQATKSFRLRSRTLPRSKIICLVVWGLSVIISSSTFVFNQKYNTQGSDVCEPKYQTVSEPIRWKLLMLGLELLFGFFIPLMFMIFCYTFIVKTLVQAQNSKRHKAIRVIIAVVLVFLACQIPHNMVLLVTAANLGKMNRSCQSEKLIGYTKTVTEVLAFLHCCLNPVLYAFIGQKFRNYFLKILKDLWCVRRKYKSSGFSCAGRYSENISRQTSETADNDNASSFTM
Kappa-type opioid receptor, sequence (P41145 whole entry): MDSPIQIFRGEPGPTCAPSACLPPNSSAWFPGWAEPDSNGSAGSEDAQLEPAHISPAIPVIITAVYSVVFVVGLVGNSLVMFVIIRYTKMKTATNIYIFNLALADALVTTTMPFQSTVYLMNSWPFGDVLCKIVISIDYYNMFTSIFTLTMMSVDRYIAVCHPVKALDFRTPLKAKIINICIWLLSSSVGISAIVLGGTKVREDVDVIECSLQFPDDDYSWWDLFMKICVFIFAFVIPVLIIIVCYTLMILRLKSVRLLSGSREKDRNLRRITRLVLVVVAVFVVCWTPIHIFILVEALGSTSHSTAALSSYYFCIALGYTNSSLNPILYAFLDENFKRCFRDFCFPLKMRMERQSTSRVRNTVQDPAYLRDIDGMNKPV
C-C chemokine receptor type 7 (Homo sapiens), sequence (P32248 whole entry): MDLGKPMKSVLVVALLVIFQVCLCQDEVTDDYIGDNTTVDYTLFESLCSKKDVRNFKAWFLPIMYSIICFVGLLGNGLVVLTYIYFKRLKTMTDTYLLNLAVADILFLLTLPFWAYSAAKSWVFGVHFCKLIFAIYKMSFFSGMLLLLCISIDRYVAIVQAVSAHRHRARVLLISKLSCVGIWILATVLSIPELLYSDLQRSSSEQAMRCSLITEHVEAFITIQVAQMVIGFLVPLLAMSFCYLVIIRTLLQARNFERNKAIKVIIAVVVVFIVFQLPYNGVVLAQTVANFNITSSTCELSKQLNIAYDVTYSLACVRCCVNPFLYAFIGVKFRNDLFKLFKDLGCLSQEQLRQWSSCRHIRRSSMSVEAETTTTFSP
Cytochrome P450 1A2, sequence (P05177 whole entry): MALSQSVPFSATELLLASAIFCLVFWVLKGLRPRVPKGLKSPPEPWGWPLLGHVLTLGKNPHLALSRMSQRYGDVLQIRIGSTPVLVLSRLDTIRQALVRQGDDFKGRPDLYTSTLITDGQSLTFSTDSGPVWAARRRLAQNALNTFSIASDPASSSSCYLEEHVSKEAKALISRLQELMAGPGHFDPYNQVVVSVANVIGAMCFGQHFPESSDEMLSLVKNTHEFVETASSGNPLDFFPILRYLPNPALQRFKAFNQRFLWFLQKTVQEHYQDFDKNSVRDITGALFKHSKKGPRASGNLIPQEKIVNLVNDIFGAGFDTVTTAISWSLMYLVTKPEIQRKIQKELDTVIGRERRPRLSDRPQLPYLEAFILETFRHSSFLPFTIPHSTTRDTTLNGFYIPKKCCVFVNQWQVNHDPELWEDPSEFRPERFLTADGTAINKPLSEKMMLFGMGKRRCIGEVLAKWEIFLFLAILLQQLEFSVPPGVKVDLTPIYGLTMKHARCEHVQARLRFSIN
Cytochrome P450 2D6, sequence (P10635 whole entry): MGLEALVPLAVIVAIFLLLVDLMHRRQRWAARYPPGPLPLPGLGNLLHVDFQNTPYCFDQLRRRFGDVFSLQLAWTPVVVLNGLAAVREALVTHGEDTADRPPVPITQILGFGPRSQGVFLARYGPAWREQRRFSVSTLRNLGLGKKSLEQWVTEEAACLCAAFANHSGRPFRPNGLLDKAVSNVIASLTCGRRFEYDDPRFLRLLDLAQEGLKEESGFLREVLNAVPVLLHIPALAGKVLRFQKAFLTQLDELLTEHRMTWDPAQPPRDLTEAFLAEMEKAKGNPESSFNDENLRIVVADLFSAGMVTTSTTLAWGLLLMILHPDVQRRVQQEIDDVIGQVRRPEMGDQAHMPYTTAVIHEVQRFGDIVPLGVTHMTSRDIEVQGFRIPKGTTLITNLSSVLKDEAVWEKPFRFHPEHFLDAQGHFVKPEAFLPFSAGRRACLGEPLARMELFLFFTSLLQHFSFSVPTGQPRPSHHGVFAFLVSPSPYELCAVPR
C-X-C chemokine receptor type 1 (Homo sapiens), sequence (P25024 whole entry): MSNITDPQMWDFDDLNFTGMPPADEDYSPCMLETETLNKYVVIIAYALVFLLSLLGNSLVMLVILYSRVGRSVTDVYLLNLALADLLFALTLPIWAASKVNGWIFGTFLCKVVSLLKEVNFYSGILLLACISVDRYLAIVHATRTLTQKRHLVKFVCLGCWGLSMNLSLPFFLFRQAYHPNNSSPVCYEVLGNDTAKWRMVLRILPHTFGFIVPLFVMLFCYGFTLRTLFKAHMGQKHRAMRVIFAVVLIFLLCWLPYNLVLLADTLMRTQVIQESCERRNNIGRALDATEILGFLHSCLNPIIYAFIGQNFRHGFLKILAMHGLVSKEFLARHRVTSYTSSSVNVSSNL
Cytochrome P450 2C9, sequence (P11712 whole entry): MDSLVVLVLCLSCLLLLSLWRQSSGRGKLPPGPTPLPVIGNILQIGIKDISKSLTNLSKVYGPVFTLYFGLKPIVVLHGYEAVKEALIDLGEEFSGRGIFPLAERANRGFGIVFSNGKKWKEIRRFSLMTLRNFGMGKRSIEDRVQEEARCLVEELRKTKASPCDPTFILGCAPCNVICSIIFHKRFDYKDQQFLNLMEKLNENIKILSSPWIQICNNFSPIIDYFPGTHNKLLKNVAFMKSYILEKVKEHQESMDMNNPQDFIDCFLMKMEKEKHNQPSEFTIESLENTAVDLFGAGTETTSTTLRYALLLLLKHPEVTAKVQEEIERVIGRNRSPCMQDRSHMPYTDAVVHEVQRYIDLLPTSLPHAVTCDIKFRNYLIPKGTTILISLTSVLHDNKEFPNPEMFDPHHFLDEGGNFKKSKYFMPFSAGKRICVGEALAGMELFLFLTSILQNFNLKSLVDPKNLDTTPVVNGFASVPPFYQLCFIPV

`CN(CCCCN(C[C@H]1Cc2ncccc2CN1)[C@H]1CCCc2cccnc21)C1CCC(F)(F)CC1` gave a remaining at 10 min [1] of 61%, a Cmax [2] of 169 ng/mL and an IC50 [3] greater than 17 µM. It also gave a Papp at 4 h [4] of 31 ×10⁻⁶ cm/s, an IC50 (Cytochrome P450 2D6) of 13 µM and a remaining at 10 min [5] of 8%. For the same molecule, the CC50 at 4 h [6] was greater than 10 µM, the IC50 [7] was 0.007 µM and the IC50 [8] was greater than 30 µM. For the same molecule, the IC50 [9] was greater than 30 µM, the IC50 [10] was 17 µM and the Cmax [11] was 116 ng/mL. For the same molecule, the Cmax [12] was 12.8 ng/mL, the concentration at 12 h [13] was 14.3 ng/mL and the AUC [14] was 190 h/ng/mL. For the same molecule, the AUC [15] was 717 h/ng/mL, the bioavailability [16] was 12.9% and the bioavailability [17] was 27.1%. For the same molecule, the bioavailability [18] was 21.5%, the clearance [19] was 188 mL/min/kg and the Vd [20] was 96.3 L/kg. For the same molecule, the IC50 (Cytochrome P450 1A2) was greater than 20 µM, the IC50 (Cytochrome P450 2C19) was greater than 20 µM and the IC50 (Cytochrome P450 2C9) was greater than 20 µM. For the same molecule, the inhibition [21] was less than 5%, the inhibition [22] was less than 5% and the inhibition [23] was less than 5%. The inhibition [24] was less than 5%, the inhibition [25] was less than 5% and the inhibition [26] was less than 5%. For the same molecule, the Selectivity Index (Homo sapiens [27]) was 710, the Selectivity Index (Homo sapiens [28]) was greater than 1000 and the Selectivity Index (Homo sapiens [29]) was greater than 1000. For the same molecule, the Selectivity Index (Homo sapiens [30]) was greater than 1000, the Selectivity Index (Homo sapiens [31]) was greater than 1000 and the Selectivity Index (Homo sapiens [32]) was greater than 710. For the same molecule, the Selectivity Index (Homo sapiens [33]) was greater than 710.
